Assay results: the supplement of paper PMC11208160

test: recombinant UMI read abundance after kanamycin selection (control-corrected) (log10(CPM+1)); higher = more efficient recombination; extreme values may be limits of the assay; sequences stand for … in AGTGCAGAGAAAATCGGCCAGTTTTCTCTGCCTGCAGTCCGCATGCCGTGGGACCCCTTGGGTTCTAACCTGTTGCCTAGATTTATGCAGCGGACTGCCTTTCTCCCAAAGTGATAAACCGG…AGGTTGGTTTCACT; site = the 11-nt donor
Experimental: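 Pooled E. coli donor-specificity screen for the IS621 bridge recombinase. Each library member carries a reprogrammed 11-nt donor and a full-length LE bridge RNA expressed in cis from the natural promoter, with a paired donor-binding loop (8-nt LDG + 4-nt RDG) and a target-binding loop fixed to T5. It is co-electroporated with a T5 target plasmid; recombinase is induced with 0.07 mM IPTG and recombinants are selected on kanamycin. UMIs are counted as CPM, averaged over two biological replicates and corrected by the unselected control. Molecule = full bridge RNA written as DNA, built from the T5 scaffold: LDG = donor specificity nt 1-8, RDG = reverse complement of nt 8-11.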
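Also: IS621 bridge recombinase in Escherichia coli cells against a fixed T5 target plasmid.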

Sequence	recombinant UMI read abundance (log10)
ACACATCCATGGACCGGTTTTCCCGGTAATCCGTATTTGAC (site ACACATCCTAT)	0.0886
ACACATCCATGGACCGGTTTTCCCGGTAATCCGTATTTGAC (site ACACATCCTCT)	0.265
ACACATCCATGGACCGGTTTTCCCGGTAATCCGTATTTGAC (site ACACATCCTGA)	0
ACACATCCATGGACCGGTTTTCCCGGTAATCCGTATTTGAC (site ACACATCCTGC)	0
ACACATCCATGGACCGGTTTTCCCGGTAATCCGTATTTGAC (site ACACATCCTGG)	0
ACACATCCATGGACCGGTTTTCCCGGTAATCCGTATTTGAC (site ACACATCCTGT)	1.22
ACACATCCATGGACCGGTTTTCCCGGTAATCCGTATTTGAC (site ACACATCCTTT)	0.421
ACACATCCATGGACCGGTTTTCCCGGTAATCCGTATTTGAC (site ACACATGCTGT)	0
ACACATCCATGGACCGGTTTTCCCGGTAATCCGTATTTGAC (site ACACATTCTGT)	0.87
ACACATCCATGGACCGGTTTTCCCGGTAATCCGTATTTGAC (site ACACCTCCTGT)	0.91
ACACATCCATGGACCGGTTTTCCCGGTAATCCGTATTTGAC (site ACACGTCCTGT)	0.84
ACACATCCATGGACCGGTTTTCCCGGTAATCCGTATTTGAC (site ACACTTCCTGT)	0
ACACATCCATGGACCGGTTTTCCCGGTAATCCGTATTTGAC (site ACAGATCCTGT)	0
ACACATCCATGGACCGGTTTTCCCGGTAATCCGTATTTGAC (site ACATATCCTGT)	0.818
ACACATCCATGGACCGGTTTTCCCGGTAATCCGTATTTGAC (site ACCCATCCTGT)	0
ACACATCCATGGACCGGTTTTCCCGGTAATCCGTATTTGAC (site ACGCATCCTGT)	0
ACACATCCATGGACCGGTTTTCCCGGTAATCCGTATTTGAC (site ACTCATCCTGT)	0
ACACATCCATGGACCGGTTTTCCCGGTAATCCGTATTTGAC (site AGACATCCTGT)	0
ACACATCCATGGACCGGTTTTCCCGGTAATCCGTATTTGAC (site ATACATCCTGT)	0
ACACATCCATGGACCGGTTTTCCCGGTAATCCGTATTTGAC (site CCACATCCTGT)	0.581
ACACATCCATGGACCGGTTTTCCCGGTAATCCGTATTTGAC (site GCACATCCTGT)	0
ACACATCCATGGACCGGTTTTCCCGGTAATCCGTATTTGAC (site TCACATCCTGT)	0.538

Sequence	recombinant UMI read abundance (log10)
ACACATCCATGGACCGGTTTTCCCGGTAATCCGTATTTGGC (site ACACATCCTGA)	0
ACACATCCATGGACCGGTTTTCCCGGTAATCCGTATTTGGC (site ACACATCCTGC)	1.5
ACACATCCATGGACCGGTTTTCCCGGTAATCCGTATTTGGC (site ACACATCCTGG)	0
ACACATCCATGGACCGGTTTTCCCGGTAATCCGTATTTGGC (site ACACATCCTGT)	1.19
ACACCATCATGGACCGGTTTTCCCGGTAATCCGTATTTGAG (site ACACCATCTCT)	1.25
ACACCATCATGGACCGGTTTTCCCGGTAATCCGTATTTGCA (site ACACCATCTTG)	2.8
ACACCATCATGGACCGGTTTTCCCGGTAATCCGTATTTGCA (site ACAGTATCTTG)	1.21
ACACCCTCATGGACCGGTTTTCCCGGTAATCCGTATTTGAC (site ACACCCTCTGT)	3.42
ACACCGTCATGGACCGGTTTTCCCGGTAATCCGTATTTGCC (site ACACCGTCTGG)	3.04
ACACGAACATGGACCGGTTTTCCCGGTAATCCGTATTTGGC (site ACACGAACTGA)	1.19
ACACGAACATGGACCGGTTTTCCCGGTAATCCGTATTTGGC (site ACACGAACTGC)	2.77
ACACGAACATGGACCGGTTTTCCCGGTAATCCGTATTTGGC (site ACACGAACTGG)	0
ACACGAACATGGACCGGTTTTCCCGGTAATCCGTATTTGGC (site ACACGAACTGT)	1.93
ACACGAACATGGACCGGTTTTCCCGGTAATCCGTATTTGTA (site ACACGAACTAA)	0.0114
ACACGAACATGGACCGGTTTTCCCGGTAATCCGTATTTGTA (site ACACGAACTCA)	0.747
ACACGAACATGGACCGGTTTTCCCGGTAATCCGTATTTGTA (site ACACGAACTGA)	1.52
ACACGAACATGGACCGGTTTTCCCGGTAATCCGTATTTGTA (site ACACGAACTTA)	2.52
ACACGATCATGGACCGGTTTTCCCGGTAATCCGTATTTGTC (site ACACGAACTGA)	0.373
ACACGATCATGGACCGGTTTTCCCGGTAATCCGTATTTGTC (site ACACGACCTGA)	0
ACACGATCATGGACCGGTTTTCCCGGTAATCCGTATTTGTC (site ACACGAGCTGA)	0
ACACGATCATGGACCGGTTTTCCCGGTAATCCGTATTTGTC (site ACACGATCTGA)	2.46
ACACGTCCATGGACCGGTTTTCCCGGTAATCCGTATTTGAC (site ACACATCCTGT)	0

Sequence	recombinant UMI read abundance (log10)
ACACGTCCATGGACCGGTTTTCCCGGTAATCCGTATTTGAC (site ACACCTCCTGT)	0
ACACGTCCATGGACCGGTTTTCCCGGTAATCCGTATTTGAC (site ACACGTCCTGT)	0.959
ACACGTCCATGGACCGGTTTTCCCGGTAATCCGTATTTGAC (site ACACTTCCTGT)	0
ACACTAACATGGACCGGTTTTCCCGGTAATCCGTATTTGTC (site ACACAAACTGA)	0
ACACTAACATGGACCGGTTTTCCCGGTAATCCGTATTTGTC (site ACACCAACTGA)	0.94
ACACTAACATGGACCGGTTTTCCCGGTAATCCGTATTTGTC (site ACACGAACTGA)	0
ACACTAACATGGACCGGTTTTCCCGGTAATCCGTATTTGTC (site ACACTAACTGA)	2.12
ACACTATCATGGACCGGTTTTCCCGGTAATCCGTATTTGTA (site ACACTATCTTA)	2.98
ACACTATCATGGACCGGTTTTCCCGGTAATCCGTATTTGTA (site ACAGTATCTTG)	0
ACACTTACATGGACCGGTTTTCCCGGTAATCCGTATTTGTT (site ACACTTACTAA)	0.147
ACACTTTCATGGACCGGTTTTCCCGGTAATCCGTATTTGCA (site ACACTTTCTTG)	2.82
ACACTTTCATGGACCGGTTTTCCCGGTAATCCGTATTTGCA (site ACAGTATCTTG)	1.19
ACAGAATCATGGACCGGTTTTCCCGGTAATCCGTATTTGCA (site ACAGAATCTTG)	2.9
ACAGAATCATGGACCGGTTTTCCCGGTAATCCGTATTTGCA (site ACAGCATCTTG)	2.64
ACAGAATCATGGACCGGTTTTCCCGGTAATCCGTATTTGCA (site ACAGGATCTTG)	2.45
ACAGAATCATGGACCGGTTTTCCCGGTAATCCGTATTTGCA (site ACAGTATCTTG)	1.8
ACAGACTCATGGACCGGTTTTCCCGGTAATCCGTATTTGCA (site ACAGACTCTTG)	2.44
ACAGACTCATGGACCGGTTTTCCCGGTAATCCGTATTTGCA (site ACAGTATCTTG)	0
ACAGAGGCATGGACCGGTTTTCCCGGTAATCCGTATTTGTG (site ACAGAGGCTCA)	1.14
ACAGGATCATGGACCGGTTTTCCCGGTAATCCGTATTTGCA (site ACAGAATCTTG)	2.47
ACAGGATCATGGACCGGTTTTCCCGGTAATCCGTATTTGCA (site ACAGCATCTTG)	2.01
